Laboratory results published in US20240083920A1, “LOW MOLECULAR WEIGHT CORROLE COMPOSITIONS” (TECHNION RESEARCH & DEVELOPMENT FOUNDATION LTD, priority 2021, published 2024).

Assay: Stability in solution / on storage
Details: in solution / ambient conditions

For `C1=Cc2cc3ccc([nH]3)c3ccc(cc4ccc(cc1n2)[nH]4)[nH]3` [H3(cor)], the stability was “stability was limited due to ambient humidity and light conditions”.
